# Test results reported in the supplement of paper PMC11061612.
# Tests used:
# Test in all cases: combination Emax (second highest fraction inhibited in the dose matrix, 72 h); higher = more inhibition; extreme values may be limits of the assay
# [1] = system: SNU-16 (Gastric Carcinoma)
# Outline: (§1)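 Cell lines in DMEM/F12 or RPMI with 10% FBS were plated in 1536-well plates, held 24 hours at 37°C, 5% CO2, then given two-drug dose matrices for 72 hours (DMSO typically 0.2%). Viability was read by CellTiter-Glo 2.0 luminescence and scaled as inhibition from 0 (vehicle wells) to 1 (blank wells). Combination Emax is the second-highest inhibition in the matrix; Bliss excess is observed combination effect minus expected EA + EB − EA·EB, EA and EB being single-agent effects.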
# MPP-89 (Mesothelioma) = system: MPP-89 (Mesothelioma)
# Outline: as §1
# [2] = system: LNZTA3WT4 (Low Grade Glioma)
# Outline: as §1
# [3] = system: CAL-33 (Oral Cavity Carcinoma)
# Outline: as §1
# [4] = system: ALL-PO (B-Lymphoblastic Leukemia)
# Outline: as §1
# [5] = system: SW1710 (Bladder Carcinoma)
# Outline: as §1
# [6] = system: ESS-1 (Other Solid Carcinomas)
# Outline: as §1
# [7] = system: NUGC-4 (Gastric Carcinoma)
# Outline: as §1
# [8] = system: KMRC-20 (Kidney Carcinoma)
# Outline: as §1
# [9] = system: NCI-H209 (Small Cell Lung Carcinoma)
# Outline: as §1
# BE2-M17 (Neuroblastoma) = system: BE2-M17 (Neuroblastoma)
# Outline: as §1
# [10] = system: BFTC-909 (Kidney Carcinoma)
# Outline: as §1
# [11] = system: NCI-H1568 (Lung Adenocarcinoma)
# Outline: as §1
# [12] = system: KYAE-1 (Esophageal Adenocarcinoma)
# Outline: as §1
# [13] = system: LS-123 (Colorectal Carcinoma)
# Outline: as §1
# [14] = system: YAPC (Pancreatic Carcinoma)
# Outline: as §1
# [15] = system: OE21 (Esophageal Squamous Cell Carcinoma)
# Outline: as §1
# [16] = system: FTC-133 (Thyroid Gland Carcinoma)
# Outline: as §1
# KS-1 (Glioblastoma) = system: KS-1 (Glioblastoma)
# Outline: as §1
# [17] = system: SW1573 (Lung Adenocarcinoma)
# Outline: as §1
SMILES,combination Emax [1],combination Emax (MPP-89 (Mesothelioma)),combination Emax [2],combination Emax [3],combination Emax [4],combination Emax [5],combination Emax [6],combination Emax [7],combination Emax [8],combination Emax [9],combination Emax (BE2-M17 (Neuroblastoma)),combination Emax [10],combination Emax [11],combination Emax [12],combination Emax [13],combination Emax [14],combination Emax [15],combination Emax [16],combination Emax (KS-1 (Glioblastoma)),combination Emax [17]
"Cc1cc2ncnn2cc1Nc1ncc2c(n1)n(C1CCOCC1)c(=O)n2C [AZD7648] + C=CCn1c(=O)c2cnc(Nc3ccc(N4CCN(C)CC4)cc3)nc2n1-c1cccc(C(C)(C)O)n1 [AZD1775] (first compound max 10 µM, partner max 1 µM)",0.885,0.559,0.717,0.864,0.966,0.408,0.974,0.359,0.53,0.743,0.704,0.619,0.453,0.574,0.641,0.533,0.673,0.633,0.425,0.328
"Cc1cc2ncnn2cc1Nc1ncc2c(n1)n(C1CCOCC1)c(=O)n2C [AZD7648] + CCN(CCO)CCCOc1ccc2c(Nc3cc(CC(=O)Nc4cccc(F)c4)[nH]n3)ncnc2c1 [AZD2811] (first compound max 10 µM, 7x7, partner max 1 µM)",0.569,0.258,0.266,0.913,0.979,0.202,0.665,0.281,0.275,0.596,0.379,0.384,0.185,0.207,0.309,0.271,0.492,0.354,0.4,0.287
"Cc1cc2ncnn2cc1Nc1ncc2c(n1)n(C1CCOCC1)c(=O)n2C [AZD7648] + CN(C)CCCOc1ccc(-c2ccc3ncc4c(c3c2)n(C2CCOCC2)c(=O)n4C)cn1 [AZD0156] (first compound max 10 µM, 7x7, partner max 1 µM)",0.239,0.302,0.276,0.375,0.265,0.217,0.481,0.216,0.201,0.237,0.283,0.338,0.24,0.121,0.34,0.209,0.554,0.241,0.245,0.164
"Cc1cc2ncnn2cc1Nc1ncc2c(n1)n(C1CCOCC1)c(=O)n2C [AZD7648] + C[C@@H]1COCCN1C2=NC(=NC(=C2)C3(CC3)[S@](=N)(=O)C)C4=C5C=CNC5=NC=C4 [AZD6738] (first compound max 10 µM, 7x7, partner max 10 µM)",0.984,0.564,0.766,0.793,0.925,0.503,0.971,0.509,0.425,0.691,0.844,0.835,0.499,0.204,0.619,0.335,0.74,0.677,0.595,0.229
"Cc1cc2ncnn2cc1Nc1ncc2c(n1)n(C1CCOCC1)c(=O)n2C [AZD7648] + O=C(c1cc(Cc2n[nH]c(=O)c3ccccc23)ccc1F)N1CCN(C(=O)C2CC2)CC1 [Olaparib] (first compound max 10 µM, 7x7, partner max 10 µM)",0.463,0.28,0.0958,0.243,0.608,0.0781,0.402,0.202,0.282,0.917,0.414,0.305,0.212,0.0816,0.297,0.0464,0.354,0.259,0.162,0.243
"Cc1nc(Nc2ncc(C(=O)Nc3c(C)cccc3Cl)s2)cc(N2CCN(CCO)CC2)n1 [Dasatinib] + CC(=O)Nc1cccc(-n2c(=O)n(C3CC3)c(=O)c3c(Nc4ccc(I)cc4F)n(C)c(=O)c(C)c32)c1 [Trametinib] (first compound max 2 µM, 7x7, partner max 1 µM)",0.532,0.851,0.329,0.629,0.451,0.77,0.776,0.431,0.57,0.124,0.868,0.35,0.668,0.0573,0.928,0.7,0.723,0.261,0.641,0.18
"COc1cc2ncnc(Nc3ccc(F)c(Cl)c3)c2cc1OCCCN1CCOCC1 [Gefitinib] + CC(C)n1c(=O)n(C)c2cnc3cc(F)c(-c4ccc(OCCCN5CCCCC5)nc4)cc3c21 [AZD1390] (first compound max 10 µM, 7x7, partner max 0.3 µM)",0.36,0.112,0.129,0.42,0.59,0.228,0.153,0.481,0.173,0.384,0.147,0.184,0.318,0.646,0.226,0.197,0.499,0.0388,0.0732,0
